Laboratory results as given in patent US5216001A, “Indole derivatives” (H. Lunbeck A/S, priority 1990, dated 1993).

What was measured:
dopamine D-2 receptors = molecular target: T1, dopamine D-2 receptors (Rattus norvegicus, UniProt P61169); test: inhibition of 3H-spiperone binding to dopamine D-2 receptors in rat corpus striatum in vitro; conditions: 3H-spiperone 0.5 nM, rat corpus striatum membranes, in vitro; read-out: Binding IC50, 3H Spi.
T1 construct: striatal tissue is dissected and weighed; from tissue; host or cells: corpus striatum membranes of male Wistar rats
Procedure, shortened: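 Rat striatal membranes from male Wistar rats in 50 mM K-phosphate pH 7.4 incubated 10 min at 37 °C with 0.5 nM ³H-spiperone and five drug concentrations over 3 decades. Bound radioactivity collected by filtration and counted by scintillation; nonspecific binding defined with 10 μM 6,7-ADTN.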

[1] = molecular target: T2, serotonin S2 (5-HT2) receptors (Rattus norvegicus, UniProt P14842); test: inhibition of 3H-ketanserin binding to serotonin S2 (5-HT2) receptors in rat cortex in vitro; conditions: 3H-ketanserin 0.5 nM, rat cortex membranes, read-out: Binding IC50, 3H Ket.
T2 construct: cortical tissue is dissected and weighed; from tissue; host or cells: cerebral cortex membranes of male Wistar (Mol:Wist) rats

α1 adrenoceptors = test: inhibition of 3H-prazosin binding to α1 adrenoceptors in rat brain in vitro; conditions: 3H-prazosin 0.25 nM, rat brain membranes, read-out: Binding IC50, 3H Praz.

T1 sequence (P61169 whole entry): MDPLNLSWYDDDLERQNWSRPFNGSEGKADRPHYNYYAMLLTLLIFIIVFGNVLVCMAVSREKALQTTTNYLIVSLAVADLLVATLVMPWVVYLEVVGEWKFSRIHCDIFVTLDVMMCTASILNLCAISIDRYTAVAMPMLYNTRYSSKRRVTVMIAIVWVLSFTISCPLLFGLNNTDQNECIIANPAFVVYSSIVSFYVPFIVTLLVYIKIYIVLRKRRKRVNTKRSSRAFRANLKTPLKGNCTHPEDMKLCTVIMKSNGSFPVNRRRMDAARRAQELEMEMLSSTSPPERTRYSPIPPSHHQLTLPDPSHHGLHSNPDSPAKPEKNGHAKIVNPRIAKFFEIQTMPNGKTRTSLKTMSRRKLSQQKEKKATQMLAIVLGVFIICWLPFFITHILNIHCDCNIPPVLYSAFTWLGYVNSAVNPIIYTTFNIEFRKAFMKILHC
T2 sequence (P14842 whole entry): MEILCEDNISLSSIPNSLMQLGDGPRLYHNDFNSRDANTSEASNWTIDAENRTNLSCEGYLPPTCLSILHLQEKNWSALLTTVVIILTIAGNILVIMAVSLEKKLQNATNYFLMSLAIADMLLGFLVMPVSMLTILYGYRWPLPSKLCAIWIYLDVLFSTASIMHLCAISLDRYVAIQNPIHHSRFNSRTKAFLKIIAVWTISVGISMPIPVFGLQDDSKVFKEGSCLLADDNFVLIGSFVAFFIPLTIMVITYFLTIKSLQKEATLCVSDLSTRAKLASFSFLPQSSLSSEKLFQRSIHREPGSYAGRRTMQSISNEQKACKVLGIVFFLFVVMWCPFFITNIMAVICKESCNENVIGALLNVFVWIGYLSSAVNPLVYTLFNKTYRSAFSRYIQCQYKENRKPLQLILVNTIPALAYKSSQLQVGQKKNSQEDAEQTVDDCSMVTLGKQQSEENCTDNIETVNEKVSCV

| Compound | IC50 (dopamine D-2 receptors) [nM] | IC50 [1] [nM] | IC50 (α1 adrenoceptors) [nM] |
| --- | --- | --- | --- |
| CC(C)N1CCN(CCN2CCC(c3cn(-c4ccc(F)cc4)c4cc(Cl)ccc34)CC2)C1=O [Compound 4a, 6-chloro-1-(4-fluorophenyl)-3-[1-[2-[3-(2-propyl)-2-imidazolidinon-1-yl]ethyl]-4-piperidyl]-1H-indole] | 130 | 1.5 | 70 |
| Cc1ccc2c(C3CCN(CCN4CCNC4=O)CC3)cn(-c3ccc(F)cc3)c2c1 [Compound 4g, 1-(4-fluorophenyl)-3-[1-[2-(2-imidazolidinon-1-yl)ethyl]-4-piperidyl]-6-methyl-1H-indole] | 270 | 0.8 | 24 |
| Cc1ccc2c(C3CCN(CCN4CCN(C(C)C)C4=O)CC3)cn(-c3ccc(F)cc3)c2c1 [Compound 5a, 1-(4-fluorophenyl)-6-methyl-3-[1-[2-[3-(2-propyl)-2-imidazolidinon-1-yl]ethyl]-4-piperidyl]-1H-indole] | 190 | 1.6 | 85 |
| OCCN1CCN(c2cn(-c3ccc(F)cc3)c3ccc(C(F)(F)F)cc23)CC1 [Lu 21-152, 1-(4-fluorophenyl)-3-[4-(2-hydroxyethyl)-1-piperazinyl]-5-trifluoromethyl-1H-indole, reference compound] | 2.6 | 1.4 | 7.6 |
